{"source": "patent US20240287609A1", "about": "“COMPOSITIONS AND METHODS FOR LARGE-SCALE IN VIVO GENETIC SCREENING” (UNIVERSITY OF UTAH RESEARCH FOUNDATION, priority 2021, published 2024)", "system": "zebrafish larvae", "assay": "Light- and Optovin-induced motor response assay", "assay_type": "in vivo, zebrafish (Danio rerio)", "settings": "10 μM optovin, wild-type zebrafish, pulsed violet light", "experimental": "Light- and Optovin-induced motor response assay. Zebrafish larvae at 3 dpf were arrayed in 96-well plates and treated with 10 μM optovin (Fisher Scientific, cat #490110) in a total volume of 200 μL E3 media. Treated larvae were incubated at […] for 1 h in dark. […] Movement of the larvae was tracked and quantitated following 5×1s pulse of violet light after 10 s interval in the dark.\nIdentifying the protein targets of small molecules remains one of the major challenges in chemical biology and pharmacology. Herein it was hypothesized that MIC-Drop could be used to identify the targets of small molecules that result in complex behavioral phenotypes in the zebrafish. As proof-of-principle, optovin was utilized, a small molecule agonist of the trpa1b channel that allows photo-activatable behavioral modifications in zebrafish. Droplets targeting the trpa1b channel were spiked into a collection of droplets containing scrambled gRNAs in a 1:20 ratio (FIG. 7B). Droplet-injected embryos were arrayed into 96-well plates, treated with optovin and exposed to violet light flashes while simultaneously recording embryo movement. […] Thus, the MIC-Drop platform was able to be used to identify the target of optovin from among a library of non-target candidates.", "note": "“Also recorded” adds a separate entry of the source.", "data": [{"smiles": "Cc1cc(/C=C2/SC(=S)NC2=O)c(C)n1-c1cccnc1", "note": "[optovin]", "values": [{"measurement": "motor response of zebrafish after treatment", "result": "light-dependent motor response; also recorded: light-dependent motion response"}]}]}
